Source: ChEMBL document CHEMBL1201862, “PubChem BioAssay data set” (2004)
Active and inactive are the calls of the source.

Experiments:
[1] = Luminescence Cell-Based Dose Response HTS to Identify Activators of Luciferase Translation or Activity in H4 […] Cells. [Related pubchem assays: 1829 (Project Summary), 1814 (Primary HTS)]; assay type: functional
[2] = Luminescence Cell-Based Dose Confirmation HTS to Identify Activators of 5'UTR Stem-Loop Driven Alpha-Synuclein mRNA Translation in H4 Neuroglioblastoma Cells. [Related pubchem assays: 1829 (Project Summary), 1814 (Primary HTS)]; assay type: functional
[3] = Luminescence Cell-Based Dose Response to Identify Activators of Luciferase Translation or Activity in H4-C Neuroglioblastoma Cells. [Related pubchem assays: 1829 (Project Summary), 1814 (Primary HTS)]; assay type: functional
[4] = Luminescence Cell-Based Dose Confirmation to Identify Activators of 5'UTR Stem-Loop Driven Alpha-Synuclein mRNA Translation in H4 Neuroglioblastoma Cells. [Related pubchem assays: 1829 (Project Summary), 1814 (Primary HTS)]; assay type: functional
H4 = test: Luminescence Cell-Based Dose Response HTS to Identify Activators of 5'UTR Stem-Loop Driven Prion Protein mRNA Translation in H4 Neuroglioblastoma Cells. [Related pubchem assays: 1829 (Project Summary), 1814 (Primary HTS)]; assay type: functional; details: Homo sapiens
[5] = Luminescence Cell-Based Dose Response to Identify Activators of 5'UTR Stem-Loop Driven Prion Protein mRNA Translation in H4-C Neuroglioblastoma Cells. [Related pubchem assays: 1829 (Project Summary), 1814 (Primary HTS)]; assay type: functional
Estrogen receptor = biological target: T1, Estrogen receptor (Homo sapiens, UniProt P03372); test: potentiators of ERα–SRC-1 coactivator binding, dose response, biochemical, TR-FRET, ERα LBD (AID 737)
T1 sequence (P03372 whole entry): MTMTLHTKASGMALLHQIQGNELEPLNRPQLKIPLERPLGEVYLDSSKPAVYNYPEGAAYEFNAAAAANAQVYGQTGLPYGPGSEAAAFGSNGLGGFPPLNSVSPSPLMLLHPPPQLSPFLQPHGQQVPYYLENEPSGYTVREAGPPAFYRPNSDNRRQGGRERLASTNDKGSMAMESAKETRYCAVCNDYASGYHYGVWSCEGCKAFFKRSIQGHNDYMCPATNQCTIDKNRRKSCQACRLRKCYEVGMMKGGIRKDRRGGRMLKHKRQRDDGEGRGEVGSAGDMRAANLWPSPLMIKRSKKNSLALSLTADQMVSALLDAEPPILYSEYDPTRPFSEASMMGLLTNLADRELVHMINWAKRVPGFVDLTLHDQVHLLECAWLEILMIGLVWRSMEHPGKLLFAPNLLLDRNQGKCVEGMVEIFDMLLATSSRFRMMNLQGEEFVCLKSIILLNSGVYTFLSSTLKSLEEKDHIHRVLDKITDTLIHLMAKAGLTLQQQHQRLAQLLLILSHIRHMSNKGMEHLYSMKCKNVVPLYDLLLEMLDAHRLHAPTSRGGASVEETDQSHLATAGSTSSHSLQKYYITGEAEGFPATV

Streptokinase A = biological target: T2, Streptokinase A (Streptococcus pyogenes serotype M1, UniProt P10520); test: S. pyogenes streptokinase expression inhibitors, potency, dose response, plasminogen activation absorbance, OD405 (AID 1914); assay type: functional, Streptococcus pyogenes M1 GAS;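 note: secreted streptokinase activity via plasminogen activation per viability signal from cell pellet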
T2 sequence (P10520 whole entry): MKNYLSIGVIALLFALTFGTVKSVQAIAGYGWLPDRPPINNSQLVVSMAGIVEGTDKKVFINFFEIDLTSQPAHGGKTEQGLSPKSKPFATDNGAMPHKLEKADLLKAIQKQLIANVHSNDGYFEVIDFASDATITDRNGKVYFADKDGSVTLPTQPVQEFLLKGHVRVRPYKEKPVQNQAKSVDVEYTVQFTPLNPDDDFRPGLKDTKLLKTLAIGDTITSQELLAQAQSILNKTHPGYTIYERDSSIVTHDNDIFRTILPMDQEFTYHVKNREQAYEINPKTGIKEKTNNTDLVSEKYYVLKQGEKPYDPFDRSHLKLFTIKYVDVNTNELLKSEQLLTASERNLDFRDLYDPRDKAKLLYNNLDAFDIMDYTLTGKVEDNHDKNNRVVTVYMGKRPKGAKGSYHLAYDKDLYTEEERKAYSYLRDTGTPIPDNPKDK

[6] = biological target: Aryl hydrocarbon receptor (Homo sapiens, UniProt P35869); test: Luminescence-based cell-based high throughput dose response assay for activators of the Aryl Hydrocarbon Receptor (AHR). [Related pubchem assays: 2796 (Primary screen (AHR activators in singlicate)), 2845 (Confirmation screen (AHR activators in triplicate)), 434939 (Counterscreen (PXR activators in triplicate)), 2804 (Summary (AHR activators))]; assay type: ADME
Sequence of Aryl hydrocarbon receptor (P35869 whole entry): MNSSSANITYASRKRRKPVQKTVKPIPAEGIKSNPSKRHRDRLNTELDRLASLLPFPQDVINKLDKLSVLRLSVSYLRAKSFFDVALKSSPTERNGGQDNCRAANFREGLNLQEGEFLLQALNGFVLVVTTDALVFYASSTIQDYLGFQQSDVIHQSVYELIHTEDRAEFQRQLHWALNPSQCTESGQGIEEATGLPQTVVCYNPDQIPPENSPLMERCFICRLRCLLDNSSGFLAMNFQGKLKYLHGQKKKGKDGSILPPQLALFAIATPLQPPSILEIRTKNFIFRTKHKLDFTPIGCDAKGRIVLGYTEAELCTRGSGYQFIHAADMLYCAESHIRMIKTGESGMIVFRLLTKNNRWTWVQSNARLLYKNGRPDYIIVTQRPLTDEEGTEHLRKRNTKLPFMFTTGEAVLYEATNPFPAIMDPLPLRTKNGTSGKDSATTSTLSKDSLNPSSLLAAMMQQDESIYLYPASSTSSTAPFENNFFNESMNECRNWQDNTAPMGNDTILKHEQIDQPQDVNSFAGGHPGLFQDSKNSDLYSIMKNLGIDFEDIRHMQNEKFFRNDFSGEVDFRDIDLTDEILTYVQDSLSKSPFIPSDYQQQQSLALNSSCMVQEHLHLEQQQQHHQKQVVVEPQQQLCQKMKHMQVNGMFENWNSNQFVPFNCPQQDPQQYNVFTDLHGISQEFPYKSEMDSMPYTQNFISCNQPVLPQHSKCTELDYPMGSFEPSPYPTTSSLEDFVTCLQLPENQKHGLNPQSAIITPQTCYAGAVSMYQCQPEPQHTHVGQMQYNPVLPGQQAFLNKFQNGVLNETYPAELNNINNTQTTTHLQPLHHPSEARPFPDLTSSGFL

[7] = biological target: Eukaryotic translation initiation factor 4E (Mus musculus, UniProt P63073); test: eIF4E–eIF4G protein interaction inhibitors, dose response, biochemical, TR-FRET (AID 855); assay type: functional;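 note: potency for disrupting eIF4E binding to eIF4GI seen as loss of FRET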
Sequence of Eukaryotic translation initiation factor 4E (P63073 whole entry): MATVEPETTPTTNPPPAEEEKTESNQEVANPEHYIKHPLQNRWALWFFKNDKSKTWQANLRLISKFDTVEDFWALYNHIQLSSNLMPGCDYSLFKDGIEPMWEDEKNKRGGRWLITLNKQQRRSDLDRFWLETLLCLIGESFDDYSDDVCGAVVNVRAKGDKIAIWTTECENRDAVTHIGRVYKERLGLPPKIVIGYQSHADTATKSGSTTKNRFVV

Bcl-2-like protein 10 = biological target: T3, Bcl-2-like protein 10 (Homo sapiens, UniProt Q9HD36); test: displacers of TR3 peptide from Bcl-B, primary screen, selectivity assay for Bfl-1 inhibitor project, biochemical, fluorescence polarization, FITC-TR3 peptide (AID 748);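 note: fluorescence polarization from a fluorescein-labelled TR3 peptide binding purified Bcl-B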
T3 sequence (Q9HD36 whole entry): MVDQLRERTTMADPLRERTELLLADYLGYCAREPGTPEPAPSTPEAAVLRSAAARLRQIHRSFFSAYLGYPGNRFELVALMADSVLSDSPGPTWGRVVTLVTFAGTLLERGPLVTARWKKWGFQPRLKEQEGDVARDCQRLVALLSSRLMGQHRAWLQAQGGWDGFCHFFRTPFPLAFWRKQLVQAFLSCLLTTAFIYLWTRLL

[8] = biological target: Protein-tyrosine kinase 2-beta (Homo sapiens, UniProt Q14289);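 note: potency of inhibitors of PYK2 kinase phosphorylation of poly-GT substrate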
Sequence of Protein-tyrosine kinase 2-beta (Q14289 whole entry): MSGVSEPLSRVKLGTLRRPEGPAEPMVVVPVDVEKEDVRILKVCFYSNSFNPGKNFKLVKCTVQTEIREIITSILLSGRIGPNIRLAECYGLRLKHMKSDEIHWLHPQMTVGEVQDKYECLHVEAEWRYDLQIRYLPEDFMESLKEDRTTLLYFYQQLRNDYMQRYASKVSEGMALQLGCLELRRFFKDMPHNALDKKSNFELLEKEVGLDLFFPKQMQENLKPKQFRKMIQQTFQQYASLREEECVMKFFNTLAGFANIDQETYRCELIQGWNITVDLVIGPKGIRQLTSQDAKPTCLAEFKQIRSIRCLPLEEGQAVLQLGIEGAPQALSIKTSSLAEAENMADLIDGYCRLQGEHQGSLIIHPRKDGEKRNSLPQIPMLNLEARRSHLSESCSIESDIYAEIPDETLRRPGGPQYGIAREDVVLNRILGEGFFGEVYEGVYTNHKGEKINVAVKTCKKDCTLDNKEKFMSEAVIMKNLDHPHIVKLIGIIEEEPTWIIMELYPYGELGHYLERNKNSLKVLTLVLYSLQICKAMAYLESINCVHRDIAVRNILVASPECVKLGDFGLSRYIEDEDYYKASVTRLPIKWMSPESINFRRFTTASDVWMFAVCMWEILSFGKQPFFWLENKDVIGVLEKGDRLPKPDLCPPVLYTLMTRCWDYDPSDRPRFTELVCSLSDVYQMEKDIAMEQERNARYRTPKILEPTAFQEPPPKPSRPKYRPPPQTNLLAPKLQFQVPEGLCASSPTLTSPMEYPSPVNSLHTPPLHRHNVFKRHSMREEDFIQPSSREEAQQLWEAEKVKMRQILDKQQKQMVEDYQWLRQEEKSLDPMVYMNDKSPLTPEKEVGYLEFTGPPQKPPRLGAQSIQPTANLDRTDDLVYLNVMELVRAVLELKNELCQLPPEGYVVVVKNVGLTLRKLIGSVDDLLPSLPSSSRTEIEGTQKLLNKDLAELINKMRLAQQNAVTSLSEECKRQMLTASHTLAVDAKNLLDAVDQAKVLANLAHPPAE

Aspartyl aminopeptidase = Aspartyl aminopeptidase (Plasmodium falciparum 3D7, UniProt Q8I2J3); test: Counterscreen for inhibitors of M1 and M17 aminopeptidases: QFRET-based biochemical high throughput dose response assay for inhibitors of the Plasmodium falciparum M18 Aspartyl Aminopeptidase (PFM18AAP). [Related PubChem assays: 1619 (Screening assay (M17LAP inhibitors).), 1445 (Screening assay (M1AAP inhibitors).)]
Sequence of Aspartyl aminopeptidase (Q8I2J3 whole entry): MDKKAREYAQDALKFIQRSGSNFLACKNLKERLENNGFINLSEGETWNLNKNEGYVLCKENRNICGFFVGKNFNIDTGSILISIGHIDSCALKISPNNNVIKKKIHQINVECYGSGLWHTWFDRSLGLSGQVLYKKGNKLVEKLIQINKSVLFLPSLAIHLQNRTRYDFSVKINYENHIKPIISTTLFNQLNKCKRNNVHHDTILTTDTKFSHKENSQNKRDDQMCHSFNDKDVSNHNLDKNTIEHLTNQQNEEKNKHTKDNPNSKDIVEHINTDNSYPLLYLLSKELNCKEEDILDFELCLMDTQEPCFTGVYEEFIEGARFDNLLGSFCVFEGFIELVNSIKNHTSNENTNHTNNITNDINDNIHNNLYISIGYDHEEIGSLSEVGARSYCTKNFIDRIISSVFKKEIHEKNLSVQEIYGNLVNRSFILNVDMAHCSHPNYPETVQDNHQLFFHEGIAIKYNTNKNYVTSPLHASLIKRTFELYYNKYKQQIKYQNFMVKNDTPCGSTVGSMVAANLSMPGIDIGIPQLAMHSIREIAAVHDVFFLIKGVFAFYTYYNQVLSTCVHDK

Aminopeptidase N = biological target: T4, Aminopeptidase N (Plasmodium falciparum FcB1/Columbia, UniProt O96935); test: P. falciparum M1AAP inhibitors, biochemical, fluorogenic H-Leu-NHMec substrate, 1536-well (AID 1445); parameters: species or system Plasmodium falciparum 3D7, 3D7
T4 sequence (O96935 whole entry): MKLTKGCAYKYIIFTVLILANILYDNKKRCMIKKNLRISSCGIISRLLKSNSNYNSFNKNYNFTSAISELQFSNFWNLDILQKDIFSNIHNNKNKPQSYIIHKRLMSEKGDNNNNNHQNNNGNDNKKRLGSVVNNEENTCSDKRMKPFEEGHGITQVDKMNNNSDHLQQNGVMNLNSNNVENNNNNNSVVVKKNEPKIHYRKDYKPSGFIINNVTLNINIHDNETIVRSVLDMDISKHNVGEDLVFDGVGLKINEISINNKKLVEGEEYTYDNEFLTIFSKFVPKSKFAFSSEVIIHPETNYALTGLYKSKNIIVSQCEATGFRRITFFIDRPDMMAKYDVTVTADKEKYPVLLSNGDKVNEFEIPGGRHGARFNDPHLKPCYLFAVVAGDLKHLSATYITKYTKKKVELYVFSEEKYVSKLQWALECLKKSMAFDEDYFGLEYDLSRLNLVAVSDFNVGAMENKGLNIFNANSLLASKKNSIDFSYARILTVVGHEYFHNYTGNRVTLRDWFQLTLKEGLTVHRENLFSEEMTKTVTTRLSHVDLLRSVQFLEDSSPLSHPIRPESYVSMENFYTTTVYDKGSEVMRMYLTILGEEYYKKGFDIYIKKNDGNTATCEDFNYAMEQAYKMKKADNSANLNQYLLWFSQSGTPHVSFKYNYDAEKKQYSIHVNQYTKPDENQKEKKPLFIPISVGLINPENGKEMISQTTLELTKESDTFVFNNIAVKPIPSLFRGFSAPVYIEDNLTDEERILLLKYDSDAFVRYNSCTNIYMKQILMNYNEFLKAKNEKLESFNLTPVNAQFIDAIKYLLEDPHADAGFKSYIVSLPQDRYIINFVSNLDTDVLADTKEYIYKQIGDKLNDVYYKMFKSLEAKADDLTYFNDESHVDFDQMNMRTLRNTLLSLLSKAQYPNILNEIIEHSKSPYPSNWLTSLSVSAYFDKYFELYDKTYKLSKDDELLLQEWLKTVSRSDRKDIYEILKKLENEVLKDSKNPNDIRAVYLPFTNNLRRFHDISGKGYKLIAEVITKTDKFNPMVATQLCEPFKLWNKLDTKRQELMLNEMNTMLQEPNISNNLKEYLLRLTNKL

Procathepsin L = Procathepsin L (Homo sapiens, UniProt P07711); test: cathepsin L inhibitors, dose response, counter-screen for M1/M17 aminopeptidase inhibitor project, biochemical, QFRET, 1536-well (AID 2214)
Sequence of Procathepsin L (P07711 whole entry): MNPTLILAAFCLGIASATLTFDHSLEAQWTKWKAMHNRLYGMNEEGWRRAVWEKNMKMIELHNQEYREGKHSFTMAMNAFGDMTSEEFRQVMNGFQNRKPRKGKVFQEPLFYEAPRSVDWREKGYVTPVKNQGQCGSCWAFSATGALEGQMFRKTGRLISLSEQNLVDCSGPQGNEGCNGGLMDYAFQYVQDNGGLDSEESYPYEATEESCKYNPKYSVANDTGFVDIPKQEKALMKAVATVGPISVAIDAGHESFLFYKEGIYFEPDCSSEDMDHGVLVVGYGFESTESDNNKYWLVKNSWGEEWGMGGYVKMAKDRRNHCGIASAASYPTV

[9] = biological target: T5, E3 ubiquitin-protein ligase XIAP (Homo sapiens, UniProt P98170); test: Counter Screen using XIAP-Bir3 for Chemical Antagonists of Bir1/2 domains of IAP-family anti-apoptotic proteins. [Related pubchem assays (depositor defined):AID1018, AID1449, AID1514, AID1638, AID1749, AID1750, AID488957, AID488963]
T5 sequence (P98170 whole entry): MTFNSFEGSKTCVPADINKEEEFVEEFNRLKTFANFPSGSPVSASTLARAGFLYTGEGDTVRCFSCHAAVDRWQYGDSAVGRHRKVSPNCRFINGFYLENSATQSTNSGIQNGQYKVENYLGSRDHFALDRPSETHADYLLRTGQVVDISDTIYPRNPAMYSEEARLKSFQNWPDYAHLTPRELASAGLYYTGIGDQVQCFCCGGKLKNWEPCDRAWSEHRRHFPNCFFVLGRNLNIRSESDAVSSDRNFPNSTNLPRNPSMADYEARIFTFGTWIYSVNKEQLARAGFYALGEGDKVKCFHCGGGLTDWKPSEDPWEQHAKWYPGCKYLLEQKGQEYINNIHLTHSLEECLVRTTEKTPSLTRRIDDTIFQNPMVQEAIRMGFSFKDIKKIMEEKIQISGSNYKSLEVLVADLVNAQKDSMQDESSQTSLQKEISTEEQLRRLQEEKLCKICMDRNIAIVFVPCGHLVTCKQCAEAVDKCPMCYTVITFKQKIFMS

[10] = biological target: T5, E3 ubiquitin-protein ligase XIAP; test: XIAP antagonists, biochemical, IAP family, fluorescence polarization (AID 1018); assay type: functional

With Cn1cc(Br)c(C(=O)Nc2sc3c(c2C(N)=O)CCCC3)n1 as the compound, how does the EC50 [1] read?
The EC50 was 13.6 µM (active).

What about the EC50 [2] of the same compound?
The EC50 was 13.3 µM (active).

What about the EC50 [3] of the same compound?
Its EC50 is > 12 µM (not active).

What about the EC50 [4] of the same compound?
Its EC50 is > 12 µM (not active).

What about the EC50 (H4) of the same compound?
Its EC50 is 0.117 µM (active).

What about the EC50 [5] of the same compound?
The EC50 was > 12 µM (not active).

Which EC50 (Estrogen receptor) does the source give for COc1ccccc1-n1c(SCC(=O)NC2CCCCC2)nc2c(c1=O)SCC2 here?
The EC50 was 6.62 µM (not active).

For Cc1ccc(NC(=S)c2nc3ccccc3[nH]2)c(C)c1, which EC50 (Streptokinase A) is on record?
The EC50 was > 150 µM (not active).

What about the EC50 [6] of the same compound?
The EC50 was 3.65 µM (active).

For Cc1cc(N)ccc1N1CCCC1, which IC50 [7] is on record?
The IC50 was 33.1 µM (inactive).

And the IC50 (Bcl-2-like protein 10)?
Its IC50 is 0.963 µM (active).

What about the IC50 [8] of the same compound?
The IC50 was 1.82 µM (active).

Which IC50 [8] does the source give for Cc1ccc(OC(=O)c2ccccc2P(=O)(O)O)cc1 here?
Its IC50 is 9.74 µM (active).

For O=C(O)CCC(=O)N1N=C(c2c(-c3ccccc3)c3cc(Cl)ccc3[nH]c2=O)CC1c1ccco1 (stereo not drawn), which IC50 (Aspartyl aminopeptidase) is on record?
The IC50 was > 73.5 µM (not active).

And the IC50 (Aminopeptidase N)?
Its IC50 is 13 µM (active).

And the IC50 (Procathepsin L)?
Its IC50 is > 59.6 µM (not active).

With CCCN1Cc2cccc(C(=O)Nc3ccc4c(c3)OCO4)c2C1=O as the compound, how does the IC50 [9] read?
Its IC50 is > 100 µM (inactive).

What about the IC50 [10] of the same compound?
The IC50 was > 100 µM (not active).
